In patent US20040024543A1, “Methods and systems for analyzing complex biological systems” (priority 2001, published 2004):
Entries after “also recorded” stand apart in the source; their conditions may differ.

What was measured:
Arabidopsis thaliana [1] = experiment: SOA1 phenotypic analysis of herbicide-treated Arabidopsis (MIC, Tmic, leaf traits); assay type: in vivo; settings: for characteristic morphological symptoms: SOA1, in words; for tMic (Dev.): coded score of time to full range of symptoms at MIC; for leafCurling (Dev.) / leafTwisting (Dev.) / leafWidth (Dev.) / matureLeafAnthocyanins (Dev.) / matureLeafChlorosis (Dev.) / matureLeafNecrosis (Dev.) / newLeafAnthocyanins (Dev.) / newLeafChlorosis (Dev.) / newLeafNecrosis (Dev.) / pointedLeaves (Dev.): numeric value standardized to mock treated
[2] = tested on: Saccharomyces cerevisiae wild type strain BY4743; experiment: AF1 yeast metabolite analysis by GC-MS and LC-MS after antifungal drug treatment; assay type: cell-based
Arabidopsis thaliana [3] = experiment: MOA1 gene expression profiling (22,000 gene arrays) of sprayed Arabidopsis; settings: for number of gene expression perturbations compared to the other treatments: 1 hr; for No. of Lethal Genes Altered: regulated genes at 1 hr compared with internal list of essential genes
Arabidopsis thaliana [4] = experiment: MOA1 biochemical (metabolite) profiling by LC-MS and GC-MS of sprayed Arabidopsis; settings: for stress-related (commonly regulated) metabolites: MOA1, 20 min and 1 hour after spraying
Arabidopsis thaliana [5] = experiment: MOA1 phenotypic profiling of sprayed Arabidopsis (symptom scores, cluster analysis); assay type: in vivo; settings: MOA1, in words
Magnaporthe grisea = assay type: cell-based
Arabidopsis = settings: nitrate addition to N-starved plants; cited from earlier work
[6] = MOA1, early time points / after one hour

Structure (SMILES): C[n+]1ccc(-c2cc[n+](C)cc2)cc1 [Paraquat]
- characteristic morphological symptoms (Arabidopsis thaliana [1]): rapid and widespread leaf necrosis
- tMic (Dev.) (Arabidopsis thaliana [1]; SOA1): 2
- leafCurling (Dev.) (Arabidopsis thaliana [1]; SOA1): 2
- leafTwisting (Dev.) (Arabidopsis thaliana [1]; SOA1): 0
- leafWidth (Dev.) (Arabidopsis thaliana [1]; SOA1): −1
- matureLeafAnthocyanins (Dev.) (Arabidopsis thaliana [1]; SOA1): 0
- matureLeafChlorosis (Dev.) (Arabidopsis thaliana [1]; SOA1): 1
- matureLeafNecrosis (Dev.) (Arabidopsis thaliana [1]; SOA1): 4
- newLeafAnthocyanins (Dev.) (Arabidopsis thaliana [1]; SOA1): 0
- newLeafChlorosis (Dev.) (Arabidopsis thaliana [1]; SOA1): 1
- newLeafNecrosis (Dev.) (Arabidopsis thaliana [1]; SOA1): 4
- pointedLeaves (Dev.) (Arabidopsis thaliana [1]; SOA1): 1

Structure (SMILES): OC(Cn1cncn1)(Cn1cncn1)c1ccc(F)cc1F [Fiuconazole]
- Fold Change ([2]; 5hydroxyLtryptophan, pLC): 0
- Fold Change ([2]; adenosine, pLC): 0

Structure (SMILES): COC(=O)c1cc(Oc2ccc(Cl)cc2Cl)ccc1[N+](=O)[O-] [Bifenox]
- characteristic morphological symptoms (Arabidopsis thaliana [1]): Necrotic leaf flecks

Structure (SMILES): O=C(O)c1ccccc1C(=O)Nc1cccc2ccccc12 [Naptalam]
- number of gene expression perturbations compared to the other treatments (Arabidopsis thaliana [3]): fewest gene expression perturbations
- No. of Lethal Genes Altered (Arabidopsis thaliana [3]): 3

Structure (SMILES): CC(C)OC(=O)Nc1cccc(Cl)c1 [Chloropropham]
- stress-related (commonly regulated) metabolites (Arabidopsis thaliana [4]): neither butylate nor chlorpropham treatment resulted in many changes in these commonly regulated metabolites
- observed phenotype (Arabidopsis thaliana [5]): neither showed a strong herbicidal phenotype

Structure (SMILES): CNc1cnn(-c2cccc(C(F)(F)F)c2)c(=O)c1Cl [Norflurazon]
- stress-related (commonly regulated) metabolites (Arabidopsis thaliana [4]): Only a few, if any

Structure (SMILES): Nc1nc[nH]n1 [Amitrole]
- characteristic morphological symptoms (Arabidopsis thaliana [1]): leaf bleaching and leaf enlargement
- observed phenotype (Arabidopsis thaliana [5]): chlorosis and not true bleaching

Structure (SMILES): CS(=O)(=O)c1cc(C(F)(F)F)ccc1C(=O)c1cnoc1C1CC1 [Isoxaflutole]
- Alpha-tocopherol levels relative to the control (Arabidopsis thaliana [4]; MOA1, early time points): not significantly changed
- phenylalanine level relative to the control (Arabidopsis thaliana [4]; [6]): up-regulated; also recorded: began to accumulate
- tyrosine level relative to the control (Arabidopsis thaliana [4]; [6]): up-regulated; also recorded: began to accumulate
- No. of Lethal Genes Altered (Arabidopsis thaliana [3]): 15

Structure (SMILES): O=C(O)c1cc(Oc2ccc(C(F)(F)F)cc2Cl)ccc1[N+](=O)[O-] [Acifluorfen]
- characteristic morphological symptoms (Arabidopsis thaliana [1]): Necrotic leaf flecks

Structure (SMILES): O=C(O)CNCP(=O)(O)O [Glyphosate]
- growth of M. grisea with ammonium or glutamine provided (Magnaporthe grisea): Little growth defect
- growth inhibition and remediation (Magnaporthe grisea; 1.0 mg/ml): remediated by inclusion of aromatic amino acids
- characteristic morphological symptoms (Arabidopsis thaliana [1]): anthocyanin accumulation in the older leaves accompanied by chlorosis of the newly emerging leaves
- tMic (Dev.) (Arabidopsis thaliana [1]; SOA1): 2
- tyrosine level relative to the control (Arabidopsis thaliana [4]; [6]): decreased

Structure (SMILES): CCNc1nc(Cl)nc(NC(C)C)n1 [Atrazine]
- characteristic morphological symptoms (Arabidopsis thaliana [1]): rapid and widespread leaf necrosis

Structure (SMILES): CCc1cnc(C2=NC(C)(C(C)C)C(=O)N2)c(C(=O)O)c1 (stereo not shown) [Imazethapyr]
- characteristic morphological symptoms (Arabidopsis thaliana [1]): anthocyanin accumulation in the older leaves accompanied by chlorosis of the newly emerging leaves

Structure (SMILES): O=C(O)COc1ccc(Cl)cc1Cl [2,4-D]
- tMic (Dev.) (Arabidopsis thaliana [1]; SOA1): 2
- leafCurling (Dev.) (Arabidopsis thaliana [1]; SOA1): 1
- leafTwisting (Dev.) (Arabidopsis thaliana [1]; SOA1): 2
- leafWidth (Dev.) (Arabidopsis thaliana [1]; SOA1): −1
- matureLeafAnthocyanins (Dev.) (Arabidopsis thaliana [1]; SOA1): 1
- matureLeafChlorosis (Dev.) (Arabidopsis thaliana [1]; SOA1): 2
- matureLeafNecrosis (Dev.) (Arabidopsis thaliana [1]; SOA1): 0
- newLeafAnthocyanins (Dev.) (Arabidopsis thaliana [1]; SOA1): 0
- newLeafChlorosis (Dev.) (Arabidopsis thaliana [1]; SOA1): 1
- newLeafNecrosis (Dev.) (Arabidopsis thaliana [1]; SOA1): 0
- pointedLeaves (Dev.) (Arabidopsis thaliana [1]; SOA1): 0
- Symtom Class (Arabidopsis thaliana [1]; SOA1, three-week-old plants sprayed with herbicide, classes pictured in FIG. 12): 5

Structure (SMILES): CCSC(=O)N(CC(C)C)CC(C)C [Butylate]
- stress-related (commonly regulated) metabolites (Arabidopsis thaliana [4]): neither butylate nor chlorpropham treatment resulted in many changes in these commonly regulated metabolites
- observed phenotype (Arabidopsis thaliana [5]): neither showed a strong herbicidal phenotype

Structure (SMILES): CC(C)N1C(=O)c2ccccc2NS1(=O)=O [Bentazon]
- characteristic morphological symptoms (Arabidopsis thaliana [1]): rapid and widespread leaf necrosis

Structure (SMILES): CN(C)C(=O)Nc1ccc(Cl)c(Cl)c1 [Diuron]
- characteristic morphological symptoms (Arabidopsis thaliana [1]): rapid and widespread leaf necrosis
- tMic (Dev.) (Arabidopsis thaliana [1]; SOA1): 1

Structure (SMILES): COC(=O)NS(=O)(=O)c1ccc(N)cc1 [Asulam]
- number of gene expression perturbations compared to the other treatments (Arabidopsis thaliana [3]): fewest gene expression perturbations
- No. of Lethal Genes Altered (Arabidopsis thaliana [3]): 5

Structure (SMILES): COc1nc(C)nc(NC(=O)NS(=O)(=O)c2ccccc2Cl)n1 [Chlorsulfuron]
- characteristic morphological symptoms (Arabidopsis thaliana [1]): anthocyanin accumulation in the older leaves accompanied by chlorosis of the newly emerging leaves
- No. of Lethal Genes Altered (Arabidopsis thaliana [3]): 8

Structure (SMILES): CSc1nnc(C(C)(C)C)c(=O)n1N [Metribuzin]
- characteristic morphological symptoms (Arabidopsis thaliana [1]): rapid and widespread leaf necrosis

Structure (SMILES): O=[N+]([O-])O [Nitrate, nitrate]
- Nitrate Regulation of Glutamate synthetase (Arabidopsis): ↑
- Nitrate Regulation of Glutamine synthetase (2) (Arabidopsis): ↑
- Nitrate Regulation of MADs Box (2) (Arabidopsis): ↓
- Nitrate Regulation of MYB transcription factor (Arabidopsis): ↑
- Nitrate Regulation of Malate Dehydrogenase (Arabidopsis): ↑
- Nitrate Regulation of Nitrate transporter (Arabidopsis): ↑
- Nitrate Regulation of Phosphate transporter (Arabidopsis): ↑
- Nitrate Regulation of Transaldolase (Arabidopsis): ↑
- Nitrate Regulation of Transketolase (Arabidopsis): ↑

Structure (SMILES): OC(Cn1cncn1)(Cn1cncn1)c1ccc(F)cc1F [Fluconazole]
- Fold Change ([2]; 4-aminobenzoic acid, pLC): 0
- Fold Change ([2]; 4-methylcatechol, nLC): 0
- Fold Change ([2]; 4-methylcatechol, pLC): 0
- Fold Change ([2]; 5hydroxyLtryptophan, nLC): 0
- Fold Change ([2]; 6-benzylaminopurine, nLC): 0
- Fold Change ([2]; 6benzylaminopurine, pLC): 0
- Fold Change ([2]; DL-aminoadipic acid, pLC): 0.1155
- Fold Change ([2]; DLaminoadipic acid, nLC): 0.443
- Fold Change ([2]; abscisic acid, nLC): 0
- Fold Change ([2]; abscisic acid, pLC): 0
- Fold Change ([2]; adenine, nLC): 0
- Fold Change ([2]; adenosine, nLC): 0
- Fold Change ([2]; allantoic acid, pLC): 0
- Fold Change ([2]; anthranilic acid, nLC): 0
- Fold Change ([2]; anthranilic acid, pLC): 0
- Fold Change ([2]; arginine, nLC): 0.6484
- Fold Change ([2]; arginine, pLC): 0.1179
- Fold Change ([2]; argininosuccinate, nLC): 0
- Fold Change ([2]; argininosuccinate, pLC): 0
- Fold Change ([2]; asparagine, GC): 0.3999
- Fold Change ([2]; asparagine, nLC): 0.3545
- Fold Change ([2]; asparagine, pLC): 0.3192
- Fold Change ([2]; aspartic acid, GC): 0.4337
- Fold Change ([2]; aspartic acid, pLC): 0.214
- Fold Change ([2]; aspartic, nLC): 0.4993
- Fold Change ([2]; benzoic acid, nLC): 0
- Fold Change ([2]; biotin, nLC): 0.3455
- Fold Change ([2]; biotin, pLC): 0
- Fold Change ([2]; caffeic acid, nLC): −0.4711
- Fold Change ([2]; caffeine, pLC): 0
- Fold Change ([2]; campesterol, GC): 0
- Fold Change ([2]; catechol, nLC): 0
- Fold Change ([2]; cinnamic acid, nLC): 0
- Fold Change ([2]; citric acid TME, pLC): 0
- Fold Change ([2]; citricanoic/itaconi, nLC): 0
- Fold Change ([2]; citrulline, nLC): 0
- Fold Change ([2]; citrulline, pLC): 0.08252
- Fold Change ([2]; coumaric acid, nLC): 0
- Fold Change ([2]; cytidine, nLC): −0.7969
- Fold Change ([2]; cytidine, pLC): 0
- Fold Change ([2]; cytosine, nLC): 0
- Fold Change ([2]; cytosine, pLC): 0
- Fold Change ([2]; decanoic acid, nLC): 0.1846
- Fold Change ([2]; desmosterol, GC): 0
- Fold Change ([2]; diaminopimelic acid, nLC): 0
- Fold Change ([2]; diaminopimelic acid, pLC): 0
- Fold Change ([2]; dihydrofolic acid, nLC): 0
- Fold Change ([2]; dihydrofolic acid, pLC): 0
- Fold Change ([2]; dipicolinic acid, pLC): 0
- Fold Change ([2]; disaccaride1, GC): 0.3883
- Fold Change ([2]; disaccaride2, GC): 0.1517
- Fold Change ([2]; disaccaride3, GC): 0.5803
- Fold Change ([2]; ergosterol, GC): 0.948
- Fold Change ([2]; estrone, nLC): 0
- Fold Change ([2]; farnesol, nLC): 0
- Fold Change ([2]; folic acid, nLC): 0
- Fold Change ([2]; folic acid, pLC): 0
- Fold Change ([2]; fucosterol, GC): 6.665
- Fold Change ([2]; fumaric/3m2oxobutan, nLC): 0.6009
- Fold Change ([2]; gallic acid, nLC): 0.5071
- Fold Change ([2]; gibberellic, nLC): 0
- Fold Change ([2]; glucosamine6PO4, nLC): −0.9951
- Fold Change ([2]; glucosamine6PO4, pLC): 0
- Fold Change ([2]; glucosamine, pLC): 0
- Fold Change ([2]; glutamate, pLC): −0.06179
- Fold Change ([2]; glutamic/acetylseri, nLC): 0.3842
- Fold Change ([2]; glutamine, GC): 0.5242
- Fold Change ([2]; glutamine/lysine, nLC): 0.3309
- Fold Change ([2]; glutamine/lysine, pLC): 0.2242
- Fold Change ([2]; glutathione, pLC): −0.05832
- Fold Change ([2]; glycanopyrose, GC): 1.202
- Fold Change ([2]; glycerol, GC): 0.2187
- Fold Change ([2]; glycine, GC): −0.1037
- Fold Change ([2]; guanine, nLC): 0
- Fold Change ([2]; guanosine, nLC): −0.993
- Fold Change ([2]; guanosine, pLC): −0.9981
- Fold Change ([2]; hexadecanoic acid, GC): 0.1343
- Fold Change ([2]; histidine, nLC): 0
- Fold Change ([2]; histidine, pLC): 0
- Fold Change ([2]; homogentisic/uric, nLC): 0
- Fold Change ([2]; hydrocortisone, nLC): 0
- Fold Change ([2]; hydrocortisone, pLC): 0
- Fold Change ([2]; hypoxanthine, nLC): 0.7757
- Fold Change ([2]; hypoxanthine, pLC): 0.1298
- Fold Change ([2]; indole3pyruvic acid, nLC): 0
- Fold Change ([2]; inostol/glucos/sorb, nLC): −0.4744
- Fold Change ([2]; iso citric acid, GC): 0.3923
- Fold Change ([2]; isocitric/citric/qu, nLC): 1.457
- Fold Change ([2]; isoleucine, GC): 0.391
- Fold Change ([2]; itaconic acid dimes, pLC): 0
- Fold Change ([2]; jasmonic acid, nLC): 0
- Fold Change ([2]; kinetin, nLC): 0
- Fold Change ([2]; kinetin, pLC): 0
- Fold Change ([2]; lactic acid, nLC): −0.0439
- Fold Change ([2]; lanosterol, GC): 8.462
- Fold Change ([2]; lauric acid, nLC): 0.3906
- Fold Change ([2]; leucine, GC): 0.3387

Structure (SMILES): CC(C)C1(C)N=C(c2ncccc2C(=O)O)NC1=O (stereo not shown) [Imazapyr]
- characteristic morphological symptoms (Arabidopsis thaliana [1]): anthocyanin accumulation in the older leaves accompanied by chlorosis of the newly emerging leaves
- stress-related (commonly regulated) metabolites (Arabidopsis thaliana [4]): Only a few, if any

Structure (SMILES): c1cc[n+]2c(c1)-c1cccc[n+]1CC2 [Diquat]
- characteristic morphological symptoms (Arabidopsis thaliana [1]): rapid and widespread leaf necrosis
- tMic (Dev.) (Arabidopsis thaliana [1]; SOA1): 2
